Experimental data as given in the METLIN SMRT retention time set (Domingo-Almenara et al. 2019).

Experiment: gradient 5% acetonitrile 3 min, to 50% in 2 min, to 85% in 15 min, held 3 min, 100 µL/min
Conditions: column: Zorbax Extend-C18 2.1 x 50 mm; eluents: water / acetonitrile, 0.1% formic acid
How it was run: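 Each retention time is based on an adduct peak selected computationally and verified by manual inspection. Measurements used HPLC–quadrupole time-of-flight mass spectrometry in positive and negative ionization mode on mixtures of ~100 pure standards. Chromatography ran on a Zorbax Extend-C18 column (2.1 × 50 mm, 1.8 μm) at 100 μL/min with water and acetonitrile, each containing 0.1% formic acid, and dead and dwell volumes of 40 μL and 900 μL.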

Row | Structure (SMILES) | RP-LC retention time [s]
1 | Cc1ccccc1NC(=O)NCCn1c(C(F)(F)F)nc2cccnc21 | 736
2 | O=C(CCCc1ccccc1)N1CCCC1c1nc(-c2ccccc2Cl)no1 (stereo unspecified) | 1140
3 | CCn1ccc2c(cc(C(=O)Nc3ccc(C)cc3)n2C)c1=O | 769
4 | Cc1ccc(NC(=O)Cn2nc3n(c2=O)CCCCC3)cc1C | 717
5 | CC1=NS(=O)(=O)N(C)C=C1C(=O)OCc1nc(-c2ccccc2F)no1 | 895
6 | c1cncc(-c2noc(COC3CCCN(C4CCCC4)C3)n2)c1 (stereo unspecified) | 585
7 | O=C(c1ccc(F)cc1)N1CCC(CCNS(=O)(=O)c2cc(F)ccc2F)CC1 | 870
8 | Cc1cc(=O)n(CC(=O)NCc2ccc(F)c(Cl)c2)c(N)n1 | 863
9 | Cc1noc(-c2ccc(NC(=O)c3cc(=O)c4ccccc4o3)cc2)n1 | 790
10 | O=C(Cn1cnc(-c2noc(-c3ccc(F)cc3)n2)c1)NC1CCCCC1 | 862
11 | O=C(Nc1nccs1)C1CC(=O)N(c2n[nH]c3cccc(F)c23)C1 (stereo unspecified) | 650
12 | CCCc1noc(-c2nc(-c3ccc(OC)c(OC)c3)no2)n1 | 1050
13 | O=C(Cc1nnc(-c2ccccc2)o1)NC1CCCC1 | 675
14 | COCC(=O)N1CCCn2cc(-c3ccccc3F)nc21 | 668
15 | O=C([C@@H]1C[C@H](Oc2ccccc2)CN1C(=O)c1n[nH]c(=O)c2ccccc12)N1CCCC1 | 703
16 | CCOC(=O)CNC(=O)N1CC(CC)Oc2ccc(C)cc21 (stereo unspecified) | 935
17 | COc1ccc2nc(C)cc(SCC(=O)Nc3csc4nc(=O)c(C)nn34)c2c1 | 590
18 | CS(=O)(=O)N1CCc2nn(Cc3ccccc3)c(=O)n2CC1 | 641
19 | COc1cccc(CNC(=O)N2CCCC(C)(C(=O)NCc3ccccc3C)C2)c1 (stereo unspecified) | 860
20 | CN(C)S(=O)(=O)c1ccc(-c2nnc(C(=O)NC3CCCCCC3)o2)cc1 | 926
21 | Cc1nnc2cc(N3CCN(C(=O)Nc4cccc(Br)c4)CC3)cnn12 | 562
22 | c1ccc(-c2nc3nc4c(c(Nc5ccc6c(c5)OCO6)n3n2)CCCC4)cc1 | 953
23 | CCCCn1c(=O)c2ccccc2n(Cc2nc(-c3ccc(Cl)c(F)c3)no2)c1=O | 1110

Row | Structure (SMILES) | RP-LC retention time [s]
24 | COc1cc(N)c(Cl)cc1C(=O)N[C@@H]1CCN(CCCOc2ccc(F)cc2)C[C@@H]1OC | 772
25 | CC(C)S(=O)(=O)c1cc2c(cc1NC(=O)c1ccc(Cl)cc1)n(C)c(=O)n2C | 936
26 | CN1CC(=O)NC(c2ccccc2Cl)C1=O (stereo unspecified) | 541
27 | Cn1cc(C(=O)N2CCC(c3noc(-c4ccccc4)n3)C2)cn1 (stereo unspecified) | 712
28 | O=c1c2nc(-c3ccc(F)cc3)cn2ccn1-c1cccc(Cl)c1 | 867
29 | CCN(CC)CCNC(=O)CCc1cc2ccc(C)cc2[nH]c1=O | 591
30 | CNC(=O)c1ccc2c(c1)CCCN2S(=O)(=O)c1ccccc1 | 769
31 | Cc1nc(-c2cccnc2)nc2c1CCC(=O)N2Cc1ccccn1 | 566
32 | CC(C(=O)NCc1ccccc1F)n1c(=O)c(C(F)(F)F)nc2ccccc21 (stereo unspecified) | 1020
33 | Cc1nc(-c2cn(C(C)C)c3ncccc23)sc1C(=O)NCc1ccc2c(c1)OCO2 | 980
34 | O=C(Nc1nccnc1C(=O)NCCN1CCOCC1)c1ccccc1 | 569
35 | Cc1c(Cl)cccc1NC(=O)Cn1cnc2nc(N3CCOCC3)ncc2c1=O | 678
36 | Cc1ccc(Cl)cc1NC(=O)N1CCCC(C)(C(=O)NCc2ccccc2)C1 (stereo unspecified) | 1040
37 | CCOC(=O)c1ccc(Nc2c(-c3cccc(O)c3)nc3cnccn23)cc1 | 717
38 | O=C(Nc1cccn2c(C3CCC3)nnc12)c1ccc2c(c1)OCO2 | 744
39 | CC1(C(=O)NCc2ccc(F)cc2)CN(S(C)(=O)=O)CC(=O)N1Cc1ccc(Cl)cc1 (stereo unspecified) | 866
40 | COc1ccc(-c2nnc(N3CCC(C(=O)NCc4cc(F)ccc4F)CC3)o2)cc1 | 824
41 | Cc1nc(CCNC(=O)C2CCN(S(=O)(=O)c3ccc(F)c(Cl)c3)CC2)cs1 | 762
42 | CCN1C(=O)c2ccccc2Oc2ccc(C(=O)NCC(C)c3ccccc3)cc21 (stereo unspecified) | 985
43 | CCC1=NS(=O)(=O)c2cccnc2N1c1ccc(OC)cc1 | 819
44 | CCCCCn1c(=O)c2ccccc2n(Cc2nc(-c3ccc(OC(F)(F)F)cc3)no2)c1=O | 739
45 | COC(=O)c1ccc(C(=O)NCC(O)c2cccc3ccccc23)cc1 (stereo unspecified) | 771
46 | O=C(Nc1cccc(OCc2nnc(-c3ccc(Cl)cc3)o2)c1)c1ccccn1 | 1070

Row | Structure (SMILES) | RP-LC retention time [s]
47 | O=C(c1ccsc1)N1CCCCC1c1nncn1-c1ccccc1 (stereo unspecified) | 676
48 | Cn1c(-c2cccc(C(=O)NCc3cccs3)c2)nc2cccnc21 | 688
49 | O=C(NCC#CCN1CCc2ccccc2C1)c1cc(C2CC2)on1 | 579
50 | CCc1noc2nc(CCC(=O)NCCN3CCN(CC)CC3)nc(N3CCCCC3)c12 | 599
51 | CCS(=O)(=O)NCc1ccc2c(c1)CCN2C(=O)CC(C)C | 794
52 | O=C(NCc1ccco1)c1scc(-c2ccc(F)cc2)c1-n1cccc1 | 1110
53 | COc1ccc(C(=O)N2CCC3(CC2)N=C(c2ccc(Br)cc2)NO3)c(OC)c1 | 886
54 | COc1ccc(-c2cc(C(=O)N3CCC(Cc4ccccc4)CC3)no2)cc1 | 1120
55 | NC(=O)C1CCN(c2ncnc3c2c(-c2ccccc2)cn3-c2cccc(Cl)c2)CC1 | 790
56 | COc1ccc(C(=O)Nc2c(-c3ccc(F)cc3)nc3cc(C)ccn23)c(OC)c1 | 697
57 | O=C(c1cc2n(n1)CCCN(Cc1ccc(F)cc1)C2=O)N1CCN(c2ccccn2)CC1 | 802
58 | O=C(Cn1c(-c2cnccn2)nc2ccccc21)N1CCN(c2ccccc2F)CC1 | 750
59 | O=C(c1ccoc1)N1CCc2c(c(CO)nn2Cc2ccccc2)C1 | 659
60 | COC(=O)c1ccc(NCc2cc(O)ccc2O)cc1 | 680
61 | CCCn1c(=O)oc2cc(NC(=O)NCC(=O)OCC)ccc21 | 703
62 | Cc1cc2c(cc1S(=O)(=O)N1CCCC1C(=O)NC1CCCC1)OC(C)C(=O)N2 (stereo unspecified) | 730
63 | CCN(CC)C(=O)c1cc2c(s1)CCC(C(=O)NCc1cccnc1)C2 (stereo unspecified) | 528
64 | CCCNC(=O)Cn1cc(C(=O)Nc2ccc(Cl)cc2)c(=O)c2ccc(C)nc21 | 962
65 | CCc1ccc(C2=C(C)C(N3CCC(NC(=O)NC(C)(C)C)CC3)=NS2(=O)=O)cc1 | 928
66 | COc1ccccc1NC(=O)c1cc2c(s1)CN(C(C)C)C2 | 614
67 | O=C(NCCC1=CCCCC1)C(=O)NCC1CCN(Cc2ccco2)CC1 | 581
68 | COc1cc(=O)n2c(c1C(=O)Nc1cccc3c1CCCC3)CCCC2 | 762
69 | CCOC(=O)c1nc(N(Cc2cccs2)C2CCCC2)c2ccccc2n1 | 1120

Row | Structure (SMILES) | RP-LC retention time [s]
70 | Nc1nnc(SCC(=O)Nc2nc(-c3ccccc3)cs2)s1 | 751
71 | Cc1ccc(-c2noc(CN3N=NC4C(=O)N(c5cccc(F)c5)C(=O)C43)n2)cc1C (stereo unspecified) | 897
72 | CCc1nc(NCc2cccnc2)ncc1C(=O)O | 560
73 | CCn1ccc2c(cc(C(=O)Nc3cccc(C)c3C)n2C)c1=O | 736
74 | Cn1cc2c3c(cccc31)CN(C(=O)c1cc(F)cc(F)c1)CC2 | 955
75 | Cc1ccc2c(c1)N(S(C)(=O)=O)CCC(C(=O)Nc1ccc(Br)c(C)c1)O2 (stereo unspecified) | 1090
76 | CCC(=O)N1CCc2sc(C(=O)NCc3ccc(F)cc3)cc2C1 | 750
77 | CCOc1ccc(N2C(=O)C3N=NN(Cc4nc(-c5ccc(C)cc5)no4)C3C2=O)cc1 (stereo unspecified) | 1040
78 | Cc1ccc(CNC(=O)Cn2nc(N3CCCC(C)C3)c3ccccc3c2=O)cc1 (stereo unspecified) | 1110
79 | CCOc1ccc(-c2[nH]ncc2CN2CCC3(CC2)CC(C)(O)CCO3)cc1 (stereo unspecified) | 596
80 | O=C(CN1CCN(Cc2ccc(F)cc2)C1=O)NCc1ccc(OC(F)(F)F)cc1 | 901
81 | COc1ccc(OC)c(S(=O)(=O)Cc2nc(-c3cccc(Br)c3)no2)c1 | 1030
82 | COCCCNc1c(-c2ccc(C)cc2)nc2sc(C(=O)N(C)C)c(C)n12 | 732
83 | O=c1n(CC2CC2)nc2n1CCC(NS(=O)(=O)Cc1ccccc1F)CC2 (stereo unspecified) | 706
84 | CC1=NN(c2nc3ccccc3[nH]2)C(=O)C1Cc1ccccc1 (stereo unspecified) | 796
85 | O=C(NC1CC1)[C@@H]1C[C@H](Oc2ccccc2)CN1S(=O)(=O)c1cccc2nsnc12 | 828
86 | CCOC(=O)c1noc2ncnc(NCCN(CC)c3cccc(C)c3)c12 | 946
87 | Cn1cccc1C(=O)C(=O)N1CCN(c2ccc(F)cc2)CC1 | 819
88 | CC(=O)c1ccc(NC(=O)Cc2csc3nc(-c4ccc(C)c(C)c4)cn23)cc1 | 795
89 | CN(C)CCNC(=O)c1ccc(CS(=O)c2ccc(Br)cc2)o1 (stereo unspecified) | 590
90 | O=C(c1cccc(Br)c1)N1CCN(c2cc(-c3ccc(Cl)cc3)[nH]n2)CC1 | 958
91 | CS(=O)(=O)N1C[C@H]2CCN(Cc3cccc(Cl)c3F)C[C@H]21 | 607
